Source: US20100267561A1, “HERBICIDAL PYRIDAZINONE DERIVATIVES” (priority 2007, published 2010)

Tests used:
Format in all cases: in vivo
[1] = system: umbrella sedge (Cyperus difformis); test: Test B flooded paddy test plant response
From the text: (§1) Plant species in the flooded paddy test consisted of rice (Oryza sativa), umbrella sedge (Cyperus difformis), ducksalad (Heteranthera limosa) and barnyardgrass (Echinochloa crus-galli) grown to the 2-leaf stage for testing. At time of treatment, test pots were flooded to 3 cm above the soil surface, treated by application of test compounds directly to the paddy water, and then maintained at that water depth for the duration of the test. Treated plants and controls were maintained in a greenhouse for 13 to 15 days, after which time all species were compared to controls and visually evaluated. Plant response ratings, summarized in Table B, are based on a scale of 0 to 100 where 0 is no effect and 100 is complete control. A dash (-) response means no test result.

[2] = system: ducksalad (Heteranthera limosa); test: Test B flooded paddy test plant response
From the text: as §1

rice (Oryza sativa) = test: Test B flooded paddy test plant response
From the text: as §1

[3] = system: barnyardgrass (Echinochloa crus-galli); test: Test B flooded paddy test plant response
From the text: as §1

corn (Zea mays) = test: Test A pre-/postemergence plant response
From the text: (§2) Seeds of species selected from barnyardgrass (Echinochloa crus-galli), large crabgrass (Digitaria sanguinalis), giant foxtail (Setaria faberi), blackgrass (Alopecurus myosuroides), canarygrass (Phalaris minor), morningglory (Ipomoea coccinea), pigweed (Amaranthus retroflexus), velvetleaf (Abutilon theophrasti), wheat (Triticum aestivum), and corn (Zea mays) were planted into a blend of loam soil and sand and treated preemergence with a directed soil spray using test chemicals formulated in a non-phytotoxic solvent mixture which included a surfactant. At the same time these species were also treated with postemergence applications of test chemicals formulated in the same manner.
(§3) Plants ranged in height from 2 to 10 cm and were in the one- to two-leaf stage for the postemergence treatment. Treated plants and untreated controls were maintained in a greenhouse for approximately 10 days, after which time all treated plants were compared to untreated controls and visually evaluated for injury. Plant response ratings, summarized in Table A, are based on a 0 to 100 scale where 0 is no effect and 100 is complete control. A dash (-) response means no test results.

[4] = system: giant foxtail (Setaria faberi); test: Test A pre-/postemergence plant response
From the text: as §2, §3

[5] = system: velvetleaf (Abutilon theophrasti); test: Test A pre-/postemergence plant response
From the text: as §2, §3

[6] = system: wheat (Triticum aestivum); test: Test A pre-/postemergence plant response
From the text: as §2, §3

[7] = system: pigweed (Amaranthus retroflexus); test: Test A pre-/postemergence plant response
From the text: as §2, §3

[8] = system: morningglory (Ipomoea coccinea); test: Test A pre-/postemergence plant response
From the text: as §2, §3

[9] = system: barnyardgrass (Echinochloa crus-galli); test: Test A pre-/postemergence plant response
From the text: as §2, §3

[10] = system: large crabgrass (Digitaria sanguinalis); test: Test A pre-/postemergence plant response
From the text: as §2, §3

[11] = Flood (flooded paddy test), 62 g ai/ha, scale 0 to 100, 0 no effect, 100 complete control
[12] = Flood (flooded paddy test), 125 g ai/ha, scale 0 to 100, 0 no effect, 100 complete control
[13] = Flood (flooded paddy test), 250 g ai/ha, scale 0 to 100, 0 no effect, 100 complete control
[14] = Flood, 31 g ai/ha, scale 0 to 100
[15] = Postemergence, 125 g ai/ha, 0 to 100 scale, 0 no effect, 100 complete control
[16] = Postemergence, 500 g ai/ha, 0 to 100 scale, 0 no effect, 100 complete control
[17] = Preemergence, 125 g ai/ha, 0 to 100 scale (0 no effect, 100 complete control)
[18] = Preemergence, 500 g ai/ha, 0 to 100 scale (0 no effect, 100 complete control)

## Cc1nc(-c2ccc(Cl)cc2)nn1-c1c(O)cnn(C)c1=O [Compound 17]
[1]; [11]
  Plant response rating, Sedge, Umbrella: 40
[1]; [12]
  Plant response rating, Sedge, Umbrella: 40
[1]; [13]
  Plant response rating, Sedge, Umbrella: 70
[1]; [14]
  Plant response rating, Sedge, Umbrella: 30
[2]; [11]
  Plant response rating, Ducksalad: 40
[2]; [12]
  Plant response rating, Ducksalad: 40
[2]; [13]
  Plant response rating, Ducksalad: 95
[2]; [14]
  Plant response rating, Ducksalad: 40
Rice (Oryza sativa); [11]
  Plant response rating, Rice: 15
Rice (Oryza sativa); [12]
  Plant response rating, Rice: 20
Rice (Oryza sativa); [13]
  Plant response rating, Rice: 40
Rice (Oryza sativa); [14]
  Plant response rating, Rice: 0
[3]; [11]
  Plant response rating, Barnyardgrass: 0
[3]; [12]
  Plant response rating, Barnyardgrass: 0
[3]; [13]
  Plant response rating, Barnyardgrass: 0
[3]; [14]
  Plant response rating, Barnyardgrass: 0
Corn (Zea mays); [15]
  Plant response rating, Corn: 0
Corn (Zea mays); [16]
  Plant response rating, Corn: 40
Corn (Zea mays); [17]
  Plant response rating, Corn: 0
Corn (Zea mays); [18]
  Plant response rating, Corn: 40
[4]; [15]
  Plant response rating, Foxtail, Giant: 80
[4]; [16]
  Plant response rating, Foxtail, Giant: 90
[4]; [17]
  Plant response rating, Foxtail, Giant: 40
[4]; [18]
  Plant response rating, Foxtail, Giant: 90
[5]; [15]
  Plant response rating, Velvetleaf: 0
[5]; [16]
  Plant response rating, Velvetleaf: 0
[5]; [17]
  Plant response rating, Velvetleaf: 0
[5]; [18]
  Plant response rating, Velvetleaf: 0
[6]; [15]
  Plant response rating, Wheat: 0
[6]; [16]
  Plant response rating, Wheat: 50
[6]; [17]
  Plant response rating, Wheat: 20
[6]; [18]
  Plant response rating, Wheat: 50
[7]; [15]
  Plant response rating, Pigweed: 0
[7]; [16]
  Plant response rating, Pigweed: 0
[7]; [17]
  Plant response rating, Pigweed: 0
[7]; [18]
  Plant response rating, Pigweed: 0
[8]; [15]
  Plant response rating, Morningglory: 0
[8]; [16]
  Plant response rating, Morningglory: 0
[8]; [17]
  Plant response rating, Morningglory: 0
[8]; [18]
  Plant response rating, Morningglory: 0
[9]; [15]
  Plant response rating, Barnyardgrass: 50
[9]; [16]
  Plant response rating, Barnyardgrass: 90
[9]; [17]
  Plant response rating, Barnyardgrass: 40
[9]; [18]
  Plant response rating, Barnyardgrass: 100
[10]; [15]
  Plant response rating, Crabgrass, Large: 40
[10]; [16]
  Plant response rating, Crabgrass, Large: 80
[10]; [17]
  Plant response rating, Crabgrass, Large: 0
[10]; [18]
  Plant response rating, Crabgrass, Large: 70

## CCc1cc(-c2ccc(Cl)c(Cl)c2)nn1-c1c(OC(=O)OC(C)C)cnn(C)c1=O [Compound 22]
[1]; [11]
  Plant response rating, Sedge, Umbrella: 0
[1]; [12]
  Plant response rating, Sedge, Umbrella: 0
[1]; [13]
  Plant response rating, Sedge, Umbrella: 0
[1]; [14]
  Plant response rating, Sedge, Umbrella: 0
[2]; [11]
  Plant response rating, Ducksalad: 0
[2]; [12]
  Plant response rating, Ducksalad: 0
[2]; [13]
  Plant response rating, Ducksalad: 0
[2]; [14]
  Plant response rating, Ducksalad: 0
Rice (Oryza sativa); [11]
  Plant response rating, Rice: 0
Rice (Oryza sativa); [12]
  Plant response rating, Rice: 0
Rice (Oryza sativa); [13]
  Plant response rating, Rice: 0
Rice (Oryza sativa); [14]
  Plant response rating, Rice: 0
[3]; [11]
  Plant response rating, Barnyardgrass: 0
[3]; [12]
  Plant response rating, Barnyardgrass: 0
[3]; [13]
  Plant response rating, Barnyardgrass: 0
[3]; [14]
  Plant response rating, Barnyardgrass: 0
Corn (Zea mays); [15]
  Plant response rating, Corn: 20
Corn (Zea mays); [16]
  Plant response rating, Corn: 90
Corn (Zea mays); [17]
  Plant response rating, Corn: 30
Corn (Zea mays); [18]
  Plant response rating, Corn: 70
[4]; [15]
  Plant response rating, Foxtail, Giant: 60
[4]; [16]
  Plant response rating, Foxtail, Giant: 80
[4]; [17]
  Plant response rating, Foxtail, Giant: 90
[4]; [18]
  Plant response rating, Foxtail, Giant: 100
[5]; [15]
  Plant response rating, Velvetleaf: 0
[5]; [16]
  Plant response rating, Velvetleaf: 0
[5]; [17]
  Plant response rating, Velvetleaf: 0
[5]; [18]
  Plant response rating, Velvetleaf: 0
[6]; [15]
  Plant response rating, Wheat: 20
[6]; [16]
  Plant response rating, Wheat: 60
[6]; [17]
  Plant response rating, Wheat: 40
[6]; [18]
  Plant response rating, Wheat: 70
[7]; [15]
  Plant response rating, Pigweed: 0
[7]; [16]
  Plant response rating, Pigweed: 0
[7]; [17]
  Plant response rating, Pigweed: 0
[7]; [18]
  Plant response rating, Pigweed: 0
[8]; [15]
  Plant response rating, Morningglory: 0
[8]; [16]
  Plant response rating, Morningglory: 0
[8]; [17]
  Plant response rating, Morningglory: 0
[8]; [18]
  Plant response rating, Morningglory: 0
[9]; [15]
  Plant response rating, Barnyardgrass: 50
[9]; [16]
  Plant response rating, Barnyardgrass: 90
[9]; [17]
  Plant response rating, Barnyardgrass: 30
[9]; [18]
  Plant response rating, Barnyardgrass: 100
[10]; [15]
  Plant response rating, Crabgrass, Large: 10
[10]; [16]
  Plant response rating, Crabgrass, Large: 80
[10]; [17]
  Plant response rating, Crabgrass, Large: 50
[10]; [18]
  Plant response rating, Crabgrass, Large: 90
